Source: patent US20110280827A1, “METHODS AND COMPOSITIONS FOR TREATING HEMATOLOGICAL MALIGNANCIES” (priority 2009, published 2011)

Legend:
[1] = system: pre-B-ALL cells; settings: in vitro; cited from earlier work
[2] = in vivo; cited from earlier work
[3] = system: AML; settings: in combination with chemotherapy, compared to chemotherapy alone; cited from earlier work
[4] = system: stroma-cocultured Jurkat cells, primary CLL cells, subset of AML cells harboring Flt3 mutation; settings: in vitro, stroma coculture; cited from earlier work
[5] = system: B104 B-cell lymphoma cells; assay: Disseminated B104 lymphoma model in SCID mice (survival, Kaplan-Meier); assay type: in vivo
Description: Five groups of 4- to 6-week-old SCID mice (8 animals each) were injected intravenously with 1×10^6 B104 B-cell lymphoma cells. […] Starting on day 7 after the injection, one group was administered CAMPATH® (alemtuzumab) weekly at 10 mg/kg; a second group was administered AMD3465 three times a week (Monday, Wednesday, Friday regimen) at 5.0 mg/kg; a third group was administered CAMPATH® (alemtuzumab) weekly at 10 mg/kg and AMD3465 three times a week (Monday, Wednesday, Friday regimen) at 1.0 mg/kg; and a fourth group was administered CAMPATH® (alemtuzumab) weekly at 10 mg/kg and AMD3465 three times a week (Monday, Wednesday, Friday regimen) at 5.0 mg/kg. […] The treatment was terminated on day 42.
Four groups of 4- to 6-week-old SCID mice (8 animals each) were injected intravenously with 1×10^6 B104 B-cell lymphoma cells. Starting on day 10 after the injection, one group was administered CAMPATH® (alemtuzumab) weekly at 10 mg/kg; a second group was administered AMD3465 daily (Monday-Friday regimen) at 5.0 mg/kg; and a third group was administered CAMPATH® (alemtuzumab) weekly at 10 mg/kg and AMD3465 daily (Monday-Friday regimen) at 5.0 mg/kg body weight.

[6] = system: Raji B-cell lymphoma cells; assay: Disseminated Raji lymphoma model in SCID mice (survival, Kaplan-Meier); assay type: in vivo
Description: Four groups of 4- to 6-week-old SCID mice (8 animals each) were injected intravenously with 2×10^6 Raji B-cell lymphoma cells. The Raji cell line is a well-characterized human B-cell lymphoblastic line (CXCR4^+, CD19^+, CD20^+, CD22^+, CD52^+) derived from a patient with Burkitt's lymphoma (available from the American Tissue and Cell Collection, Manassas, Va.). Starting on day 7 after the injection, three of the four groups were administered subcutaneous AMD3465 daily (Monday-Friday regimen) at 0.1 mg/kg, 0.5 mg/kg or 1.0 mg/kg body weight.

SMILES	SDF-1/CXCL12 induced chemotaxis of pre-B-ALL cells into bone marrow stroma layers [1]	cytotoxic and antiproliferative effects of vincristine and dexamethasone [1]	white blood cell count [2]	overall survival [3]	tumor burden [3]	chemotherapy-induced apoptosis [4]	mean survival ([5]; 5.0 mg/kg AMD3465 alone daily (M-F) from day 10)	mean survival ([5]; 5.0 mg/kg AMD3465 alone three times a week (M, W, F) from day 7)	mean survival ([6]; 5.0 mg/kg AMD3465 alone daily (M-F) from day 7)	dose dependence of the survival effect ([6]; AMD3465 alone 0.1, 0.5, 1.0 mg/kg, reverse dose-response)	mean survival ([6]; AMD3465 alone s.c. daily (M-F) at 0.1, 0.5 or 1.0 mg/kg from day 7, each concentration tested, vs control)
c1cc(CN2CCCNCCNCCCNCC2)ccc1CN1CCCNCCNCCCNCC1 [AMD3100]	blocked	enhanced	increasing the white blood cell count	improved overall survival	decreased tumor burden						
c1ccc(CNCc2ccc(CN3CCCNCCNCCCNCC3)cc2)nc1 [AMD3465]				improved overall survival	decreased tumor burden	significantly enhanced	did not have a significant effect	did not have a significant effect	did not have a significant effect	stronger effect observed at the lower concentrations	significantly increased
